Data on 14 compounds can be found in US20120129843A1, “PYRIDYL-THIAZOLYL INHIBITORS OF PRO-MATRIX METALLOPROTEINASE ACTIVATION” (priority 2010, published 2012).

pIC50, pKd: −log10 of the molar value. Structures can show the parent of a compound that is named as a salt.

Experiment [1] concerns the target T1, proMMP9(20-445;ΔFnII) (SEQ ID NO:6) (Homo sapiens, UniProt P14780, DEL216-390).
T1 construct: start methionine (N); made in house; host or cells: E. coli BL21(DE3) RIL
T1 sequence (P14780 with tags, fused parts or gaps DEL216-390): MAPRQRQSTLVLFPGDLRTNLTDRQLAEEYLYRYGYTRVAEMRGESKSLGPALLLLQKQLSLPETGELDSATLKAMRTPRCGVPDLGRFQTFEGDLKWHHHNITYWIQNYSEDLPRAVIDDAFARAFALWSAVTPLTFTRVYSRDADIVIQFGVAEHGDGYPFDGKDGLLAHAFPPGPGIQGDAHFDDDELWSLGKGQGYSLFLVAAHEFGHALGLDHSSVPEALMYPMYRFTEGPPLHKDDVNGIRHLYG
The experiment in a line: ThermoFluor binding assay with proMMP9(20-445;ΔFnII). On the procedure:
(§1) The ThermoFluor® (TF) assay is a 384-well plate-based binding assay that measures thermal stability of proteins (Biomol Screen 2001, 6, 429-40; Biochemistry 2005, 44, 5258-66). The experiments were carried out using instruments available from Johnson & Johnson Pharmaceutical Research & Development, LLC. TF dye used in all experiments was […] (1,8-ANS) (Invitrogen: A-47).
(§2) Compounds were arranged in a pre-dispensed plate (Greiner Bio-one: 781280), wherein compounds were serially diluted in 100% DMSO across 11 columns within a series. Columns 12 and 24 were used as DMSO reference and contained no compound. For multiple compound concentration-response experiments, the compound aliquots ([…]) were robotically predispensed directly into black 384-well polypropylene PCR microplates (Abgene: TF-0384/k) using a Cartesian Hummingbird liquid handler (DigiLab, Holliston, Mass.). Following compound dispense, protein and dye solutions were added to achieve the final assay volume of 3 μL. The assay solutions were overlayed with 1 μL of silicone oil (Fluka, type DC 200: 85411) to prevent evaporation.
(§3) Assay plates were robotically loaded onto a thermostatically controlled PCR-type thermal block and then heated from 40 to 90° C. at a ramp-rate of 1° C./min for all experiments. Fluorescence was measured by continuous illumination with UV light (Hamamatsu LC6) supplied via fiber optics and filtered through a band-pass filter (380-400 nm; >60D cutoff). Fluorescence emission of the entire 384-well plate was detected by measuring light intensity using a CCD camera (Sensys, Roper Scientific) filtered to detect 500±25 nm, resulting in simultaneous and independent readings of all 384 wells. A single image with 20-sec exposure time was collected at each temperature, and the sum of the pixel intensity in a given area of the assay plate was recorded vs temperature and fit to standard equations to yield the Tm (J Biomol Screen 2001, 6, 429-40).
(§4) Thermodynamic parameters necessary for fitting compound binding for each proMMP were estimated by differential scanning calorimetry (DSC) and from ThermoFluor® data. The heat capacity of unfolding for each protein was estimated from the molecular weight and from ThermoFluor® dosing data.
ThermoFluor® with proMMP9(20-445;ΔFnII) (SEQ ID NO:6)
The protein sample preparations included a desalting buffer exchange step via a PD-10 gravity column (GE Healthcare). The desalting buffer exchange was performed prior to diluting the protein to the final assay concentration of 2.8 μM proMMP9(20-445;ΔFnII) (SEQ ID NO:6). The concentration of proMMP9(20-445;ΔFnII) (SEQ ID NO:6) was determined spectrophotometrically based on a calculated extinction coefficient of ε280=39880 M^−1cm^−1, a calculated molecular weight of 28.2 kDa, and calculated pI of 5.5. ThermoFluor® reference conditions were define as follows: 80 μg/mL (2.8 μM) proMMP9(20-445;ΔFnII) (SEQ ID NO:6), 50 μM 1,8-ANS, pH 7.0 Buffer (50 mM HEPES pH 7.0, 100 mM NaCl, 0.001% Tween-20, 2.5 mM MgCl2, 300 μM CaCl2). The thermodynamic parameters for proMMP9(20-445;ΔFnII) (SEQ ID NO:6) are as follows: Tm (° C.)=72 (+/−0.1), ΔUH(Tm) (cal mol^−1)=160000(+/−5000), ΔUS(Tm) (cal mol^−1 K^−1)=434, ΔUCp (cal mol^−1 K^−1)=2400.
Background: DSF heats the sample and reads unfolding from a dye or from intrinsic fluorescence.

The target of experiment [2] is T2, proMMP9(67-444;ΔFnII) (SEQ ID NO:5) (Homo sapiens, UniProt P14780, DEL216-390).
T2 construct: start methionine (N); made in house; host or cells: E. coli BL21(DE3) RIL
T2 sequence (P14780 with tags, fused parts or gaps DEL216-390): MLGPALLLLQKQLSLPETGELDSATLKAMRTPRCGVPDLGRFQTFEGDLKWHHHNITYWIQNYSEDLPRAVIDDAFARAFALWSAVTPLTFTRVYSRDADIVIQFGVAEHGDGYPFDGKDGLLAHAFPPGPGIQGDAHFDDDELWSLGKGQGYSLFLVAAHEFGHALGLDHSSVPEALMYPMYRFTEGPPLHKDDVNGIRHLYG
The experiment in a line: ThermoFluor binding assay with proMMP9(67-444;ΔFnII). On the procedure: as §1, §2, §3, §4
ThermoFluor® with proMMP9(67-444;ΔFnII) (SEQ ID NO:5)
The protein sample preparations had to include a desalting buffer exchange step via a PD-10 gravity column (GE Healthcare). The desalting buffer exchange was performed prior to diluting the protein to the final assay concentration of 3.5 μM proMMP9(67-444;ΔFnII) (SEQ ID NO:5). The concentration of proMMP9(67-444;ΔFnII) (SEQ ID NO:5) was determined spectrophotometrically based on a calculated extinction coefficient of ε280=33900 M^−1cm^−1, a calculated molecular weight of 22.6 kDa, and calculated pI of 5.20. ThermoFluor® reference conditions were defined as follows: 80 μg/mL (3.5 μM) proMMP9(67-444;ΔFnII) (SEQ ID NO:5), 50 μM 1,8-ANS, pH 7.0 Buffer (50 mM HEPES pH 7.0, 100 mM NaCl, 0.001% Tween-20, 2.5 mM MgCl2, 300 μM CaCl2). The thermodynamic parameters for proMMP9(67-444;ΔFnII) (SEQ ID NO:5) are as follows: Tm (° C.)=63 (+/−0.1), ΔUH(Tm) (cal mol^−1)=105000(+/−5000), ΔUS(Tm) (cal mol^−1 K^−1)=[…], ΔUCp (cal mol^−1 K^−1)=2000.

In experiment [3] the target is T3, full-length proMMP9(1-707) (SEQ ID NO:1), activation by catalytic MMP3 (Homo sapiens, UniProt P14780, R574P).
T3 construct: made in house; host or cells: HEK293 (proMMP9, secreted); E. coli (MMP3)
T3 sequence (P14780 20-707 R574P): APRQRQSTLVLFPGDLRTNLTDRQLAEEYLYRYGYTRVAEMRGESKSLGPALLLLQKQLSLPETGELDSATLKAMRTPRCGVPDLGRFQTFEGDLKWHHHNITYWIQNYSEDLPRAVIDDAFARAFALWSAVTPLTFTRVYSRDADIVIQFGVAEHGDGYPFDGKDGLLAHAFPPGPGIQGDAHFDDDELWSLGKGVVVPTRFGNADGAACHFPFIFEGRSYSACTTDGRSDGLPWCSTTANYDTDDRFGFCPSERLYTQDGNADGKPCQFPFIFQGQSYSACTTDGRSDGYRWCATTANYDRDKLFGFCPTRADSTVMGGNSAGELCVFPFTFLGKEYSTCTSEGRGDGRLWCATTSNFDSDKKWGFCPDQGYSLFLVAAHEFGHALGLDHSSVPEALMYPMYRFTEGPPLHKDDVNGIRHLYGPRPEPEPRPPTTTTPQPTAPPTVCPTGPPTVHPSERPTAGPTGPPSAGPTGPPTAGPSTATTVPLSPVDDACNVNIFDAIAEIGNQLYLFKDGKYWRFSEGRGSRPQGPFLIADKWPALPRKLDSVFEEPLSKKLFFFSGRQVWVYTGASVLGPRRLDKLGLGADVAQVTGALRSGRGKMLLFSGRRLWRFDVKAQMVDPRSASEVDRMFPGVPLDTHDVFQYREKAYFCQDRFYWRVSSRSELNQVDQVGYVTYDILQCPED
The experiment in a line: proMMP9/MMP3 P126 Activation Assay. It is filed as biochemical. On the procedure: proMMP9/MMP3 P126 Activation Assay
The reaction volume was 50 μL. […] Reactivity of residual MMP3 towards P-126 substrate was minimal under these conditions.

Turning to `CCN1CCN(c2ccc(-c3csc(Nc4cc(S(N)(=O)=O)ccc4OC(C)C)n3)cn2)CC1` [Example 38, 4-Isopropoxy-3-{4-[6-(4-ethyl-piperazin-1-yl)-pyridin-3-yl]-thiazol-2-ylamino}-benzenesulfonamide.TFA], the pKd in experiment [1] is 7.14; in experiment [2], 6.42. In experiment [3], this compound had a pIC50 of 6.77.
Taken in the same sequence, the figures for `CN1CCN(c2cc(-c3csc(Nc4cc(C(N)=O)ccc4OC(F)(F)F)n3)ccn2)CC1` [Example 36, 3-{4-[2-(4-Methyl-piperazin-1-yl)-pyridin-4-yl]-thiazol-2-ylamino}-4-trifluoromethoxy-benzamide.TFA] were 5.89, 5.14 and 5.64.
The like results for `CC(C)Oc1ccc(S(N)(=O)=O)cc1Nc1nc(-c2ccnc(N3CCN(C)CC3)c2)cs1` [Example 35, 4-Isopropoxy-3-{4-[2-(4-methyl-piperazin-1-yl)-pyridin-4-yl]-thiazol-2-ylamino}-benzenesulfonamide.TFA] were, in that order, 6.72, 6.34 and 6.96.
The like results for `CC(C)Oc1ccc(S(N)(=O)=O)cc1Nc1nc(-c2ccc(C(=O)N3CCN(C)CC3)nc2)cs1` [Example 46, 4-Isopropoxy-3-{4-[6-(4-methyl-piperazine-1-carbonyl)-pyridin-3-yl]-thiazol-2-ylamino}-benzenesulfonamide.TFA] were, in that order, 5.89, 5.18 and 5.89.
Take `NC(=O)c1ccc(OC(F)(F)F)c(Nc2nc(-c3ccnc(Cl)c3)cs2)c1` [Example 34, 3-[4-(2-Chloro-pyridin-4-yl)-thiazol-2-ylamino]-4-trifluoromethoxy-benzamide.TFA]: the figures for the negative-log Kd (pKd) in experiment [1] and in experiment [2] were 6.74 and 5.82, respectively. The compound also gave a negative-log IC50 (pIC50) in experiment [3] of 5.96.
The like results for `CC(C)Oc1ccc(S(N)(=O)=O)cc1Nc1nc(-c2ccc(N3CCNCC3)nc2)cs1` [Example 44, 4-Isopropoxy-3-[4-(6-piperazin-1-yl-pyridin-3-yl)-thiazol-2-ylamino]-benzenesulfonamide.TFA] were, in that order, 7.32, 6.89 and 7.14.
Taken in the same sequence, the figures for `CC(C)Oc1ccc(S(N)(=O)=O)cc1Nc1nc(-c2ccc(N3CCN(C(C)C)CC3)nc2)cs1` [Example 39, 4-Isopropoxy-3-{4-[6-(4-isopropyl-piperazin-1-yl)-pyridin-3-yl]-thiazol-2-ylamino}-benzenesulfonamide.TFA] were 7.15, 6.77 and 7.06.
Taken in the same sequence, the figures for `CC(C)Oc1ccc(S(N)(=O)=O)cc1Nc1nc(-c2ccc(C(=O)N(C)CCN(C)C)nc2)cs1` [Example 53, 5-[2-(2-Isopropoxy-5-sulfamoyl-phenylamino)-thiazol-4-yl]-pyridine-2-carboxylic acid (2-dimethylamino-ethyl)-methyl-amide.TFA] were 6.05, 5.64 and 6.01.
As for `CN1CCN(c2ccc(-c3csc(Nc4cc(S(N)(=O)=O)ccc4OC(F)(F)F)n3)cn2)CC1` [Example 30, 3-{4-[6-(4-Methyl-piperazin-1-yl)-pyridin-3-yl]-thiazol-2-ylamino}-4-trifluoromethoxy-benzenesulfonamide], the pKd is 6.37 in experiment [1] and 6.16 in experiment [2]. In experiment [3], this compound showed a pIC50 of 6.12.
The like results for `COC/C=C/c1ccc(-c2csc(Nc3cc(S(N)(=O)=O)ccc3OC(C)C)n2)cn1` [Example 93, (E)-4-Isopropoxy-3-((4-(6-(3-methoxyprop-1-en-1-yl)pyridin-3-yl)thiazol-2-yl)amino)benzenesulfonamide.TFA] were, in that order, 6.24, 5.47 and 6.28.
Taken in the same sequence, the figures for `CC(C)Oc1ccc(S(N)(=O)=O)cc1Nc1nc(-c2ccc(N3CCNC(=O)C3)nc2)cs1` [Example 64, 4-Isopropoxy-3-((4-(6-(3-oxopiperazin-1-yl)pyridin-3-yl)thiazol-2-yl)amino)benzenesulfonamide.TFA] were 6.59, 5.60 and 6.92.
The like results for `CC(C)Oc1ccc(S(N)(=O)=O)cc1Nc1nc(-c2ccc(C(=O)NCCN(C)C)nc2)cs1` [Example 50, 5-[2-(2-Isopropoxy-5-sulfamoyl-phenylamino)-thiazol-4-yl]-pyridine-2-carboxylic acid (2-dimethylamino-ethyl)-amide.TFA] were, in that order, 7.05, 6.89 and 6.80.
With `CC(C)Oc1ccc(S(N)(=O)=O)cc1Nc1nc(-c2ccc(C(=O)N3CCN(C(=O)OC(C)(C)C)CC3)nc2)cs1` [Example 54, 4-{5-[2-(2-Isopropoxy-5-sulfamoyl-phenylamino)-thiazol-4-yl]-pyridine-2-carbonyl}-piperazine-1-carboxylic acid tert-butyl ester.TFA], the pKd in experiment [1] is 6.02; in experiment [2] it was 5.60. Also, in experiment [3], the negative-log IC50 (pIC50) was 5.43.
Turning to `CC(C)Oc1ccc(S(N)(=O)=O)cc1Nc1nc(-c2ccc(C(=O)NC3CCN(C)CC3)nc2)cs1` [Example 55, 5-[2-(2-Isopropoxy-5-sulfamoyl-phenylamino)-thiazol-4-yl]-pyridine-2-carboxylic acid (1-methyl-piperidin-4-yl)-amide.TFA], the pKd is 6.09 in experiment [1] and 5.59 in experiment [2]. The same compound gave a pIC50 in experiment [3] of 6.38.

One may read the pKd as −log10 of the Kd, conventionally taken in molar units. Read a low pKd as a high Kd. As usually defined, the pIC50 is the IC50 on a negative log10 scale, so that one unit is a factor of ten.
